Reference: patent US20050245472A1, “Engineered rnai adenovirus silencing expression (erase) of dna reair proteins” (The Johns Hopkins University, priority 2003, published 2005)

System: DU 145 cells
Assay: Clonogenic survival after ionizing radiation
Assay type: cell-based, human
Settings: DU 145, 10 μM, one hour before and 24 hours after irradiation, vs DMSO

SMILES | DRF, ionizing radiation (DRF at 80% clonogenic cell killing) | DRF, ionizing radiation
O=c1cc(N2CCOCC2)oc2c(-c3ccccc3)cccc12 [LY294002] | 1.1 | 
COC[C@H]1OC(=O)c2coc3c2[C@@]1(C)C1=C(C3=O)[C@@H]2CCC(=O)[C@@]2(C)C[C@H]1OC(C)=O [Wortmannin] |  | 1.4
